In patent US9371320B2, “Heterocyclic compound” (TAKEDA PHARMACEUTICAL COMPANY LIMITED, priority 2012, dated 2016):
Read-outs that look alike come from different tables or passages of the source.

Key:
JAK1 = target: T1, JAK1 (Homo sapiens, UniProt P23458); experiment: JAK1 enzyme inhibition test (LANCE method); type: biochemical; details: for inhibition at 1 µM: test compound 1 μM, read-out: Inhibitory rate (%) JAK1 1 μM; for inhibition at 10 µM: read-out: Inhibitory rate (%) JAK1 10 μM
T1 construct: purchased Invitrogen
Outline: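 TR-FRET (LANCE) kinase assay using JAK1 at 187.5 ng/mL, ULight-JAK1 peptide at 300 nM and ATP at 150 μM, given as solution concentrations before mixing. Buffer was 50 mM HEPES pH 7.5 with 10 mM MgCl2 and 2 mM DTT, and the reaction ran 1 h at room temperature. Eu anti-phosphotyrosine signal at 665 nm was expressed relative to a no-enzyme well, taken as 100% inhibition.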

Tyk2 = target: T2, Tyk2 (Homo sapiens, UniProt P29597); experiment: Tyk2 enzyme inhibition test (LANCE method); type: biochemical; details: for inhibition at 1 µM: test compound 1 μM, read-out: Inhibitory rate (%) Tyk2 1 μM
T2 construct: purchased Invitrogen
Outline: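 Recombinant Tyk2 (375 ng/mL stock) with ULight-JAK1 peptide (300 nM stock) and ATP (30 μM stock) in HEPES pH 7.5/MgCl2/EGTA/DTT buffer, 1 h at room temperature. Stopped with EDTA plus Eu-anti-phosphotyrosine antibody; TR-FRET read at 665 nm after 1 h. No-enzyme wells define 100% inhibition.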

[1] = test compound 10 μM (Ex. 182-220), beside Tyk2 1 μM

T2 sequence (P29597 whole entry): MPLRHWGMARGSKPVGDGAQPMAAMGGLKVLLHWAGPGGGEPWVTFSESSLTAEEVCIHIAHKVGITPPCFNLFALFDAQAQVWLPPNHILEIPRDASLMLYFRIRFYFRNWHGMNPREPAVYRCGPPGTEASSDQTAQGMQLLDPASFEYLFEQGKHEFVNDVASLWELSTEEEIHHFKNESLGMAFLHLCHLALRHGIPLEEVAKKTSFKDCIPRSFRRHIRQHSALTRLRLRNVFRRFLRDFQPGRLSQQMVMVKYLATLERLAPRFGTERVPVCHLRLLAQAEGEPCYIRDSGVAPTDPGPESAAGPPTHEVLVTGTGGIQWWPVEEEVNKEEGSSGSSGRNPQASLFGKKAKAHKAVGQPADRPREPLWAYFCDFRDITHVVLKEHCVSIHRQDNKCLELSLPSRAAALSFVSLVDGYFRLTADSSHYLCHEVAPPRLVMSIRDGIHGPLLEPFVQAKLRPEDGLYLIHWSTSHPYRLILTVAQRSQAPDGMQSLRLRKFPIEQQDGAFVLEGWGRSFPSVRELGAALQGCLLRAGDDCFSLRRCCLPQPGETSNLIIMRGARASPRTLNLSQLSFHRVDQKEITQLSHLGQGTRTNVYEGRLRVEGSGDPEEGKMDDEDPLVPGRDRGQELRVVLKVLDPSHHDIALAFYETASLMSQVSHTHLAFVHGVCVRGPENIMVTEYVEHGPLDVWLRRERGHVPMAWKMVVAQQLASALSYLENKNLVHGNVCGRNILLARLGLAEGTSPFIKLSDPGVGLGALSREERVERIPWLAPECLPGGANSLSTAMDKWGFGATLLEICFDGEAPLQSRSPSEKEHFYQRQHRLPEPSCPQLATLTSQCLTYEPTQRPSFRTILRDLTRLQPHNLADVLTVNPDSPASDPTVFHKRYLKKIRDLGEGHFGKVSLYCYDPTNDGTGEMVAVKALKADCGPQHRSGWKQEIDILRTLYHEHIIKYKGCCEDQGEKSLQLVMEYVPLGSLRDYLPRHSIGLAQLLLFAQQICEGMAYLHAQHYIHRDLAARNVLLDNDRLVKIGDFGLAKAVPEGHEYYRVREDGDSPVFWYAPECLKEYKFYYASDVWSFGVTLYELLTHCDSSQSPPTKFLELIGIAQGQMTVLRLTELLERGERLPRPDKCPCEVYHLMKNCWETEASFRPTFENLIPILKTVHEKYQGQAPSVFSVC
T1 sequence (P23458 whole entry): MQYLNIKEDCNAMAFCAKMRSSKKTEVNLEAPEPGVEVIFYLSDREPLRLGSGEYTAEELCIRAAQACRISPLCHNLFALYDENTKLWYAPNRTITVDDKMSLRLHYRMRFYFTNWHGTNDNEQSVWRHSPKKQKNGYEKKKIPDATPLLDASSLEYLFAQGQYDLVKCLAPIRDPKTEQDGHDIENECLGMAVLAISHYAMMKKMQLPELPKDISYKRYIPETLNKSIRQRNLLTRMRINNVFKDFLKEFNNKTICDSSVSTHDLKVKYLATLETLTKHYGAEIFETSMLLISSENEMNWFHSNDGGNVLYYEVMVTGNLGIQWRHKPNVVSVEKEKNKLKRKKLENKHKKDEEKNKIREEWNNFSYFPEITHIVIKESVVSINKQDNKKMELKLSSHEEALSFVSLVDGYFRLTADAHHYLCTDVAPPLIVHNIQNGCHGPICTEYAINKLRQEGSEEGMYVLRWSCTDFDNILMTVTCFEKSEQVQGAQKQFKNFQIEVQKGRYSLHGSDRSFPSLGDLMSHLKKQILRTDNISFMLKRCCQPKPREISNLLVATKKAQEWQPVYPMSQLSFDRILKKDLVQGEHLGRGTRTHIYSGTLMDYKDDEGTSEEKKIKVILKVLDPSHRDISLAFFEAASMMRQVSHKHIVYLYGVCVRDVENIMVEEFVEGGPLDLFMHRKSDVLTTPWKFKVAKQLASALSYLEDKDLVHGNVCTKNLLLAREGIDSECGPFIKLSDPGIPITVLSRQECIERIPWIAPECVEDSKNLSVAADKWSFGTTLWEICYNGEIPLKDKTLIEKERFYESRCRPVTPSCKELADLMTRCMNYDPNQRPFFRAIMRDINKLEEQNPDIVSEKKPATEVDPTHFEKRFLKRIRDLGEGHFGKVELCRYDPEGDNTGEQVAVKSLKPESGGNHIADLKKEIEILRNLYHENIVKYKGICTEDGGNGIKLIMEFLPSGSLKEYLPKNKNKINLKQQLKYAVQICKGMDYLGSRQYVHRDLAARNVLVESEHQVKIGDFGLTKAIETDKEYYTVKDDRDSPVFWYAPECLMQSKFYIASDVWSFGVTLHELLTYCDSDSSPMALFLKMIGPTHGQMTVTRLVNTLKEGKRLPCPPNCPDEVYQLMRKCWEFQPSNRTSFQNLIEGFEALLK

SMILES | inhibition at 1 µM (JAK1) | inhibition at 1 µM (Tyk2) | inhibition at 10 µM (JAK1; [1]) | inhibition at 10 µM (JAK1; test compound 10 μM) | inhibition at 10 µM (Tyk2; test compound 10 μM, read-out: Inhibitory rate (%) Tyk2 10 μM)
N#CCc1ccc(-c2nn(-c3c(F)cccc3F)c3c(Br)c[nH]c(=O)c23)cc1 [Example 104, (4-(7-bromo-1-(2,6-difluorophenyl)-4-oxo-4,5-dihydro-1H-pyrazolo[4,3-c]pyridin-3-yl)phenyl)acetonitrile] | 94% | 99% | – | – | –
Cn1ccc(-c2cn(C3CCCC3)c3c(C#N)c[nH]c(=O)c23)n1 [Example 136, 1-cyclopentyl-3-(1-methyl-1H-pyrazol-3-yl)-4-oxo-4,5-dihydro-1H-pyrrolo[3,2-c]pyridine-7-carbonitrile] | 59% | 93% | – | – | –
NS(=O)(=O)c1ccc(-c2nn(-c3ccccc3C(F)(F)F)c3cc[nH]c(=O)c23)cc1 [Example 212, 4-(4-oxo-1-(2-(trifluoromethyl)phenyl)-4,5-dihydro-1H-pyrazolo[4,3-c]pyridin-3-yl)benzenesulfonamide] | – | 96% | 99% | – | –
NS(=O)(=O)c1ccc(-c2cn(CC(O)CO)c3cc[nH]c(=O)c23)cc1 (stereo not shown) [Example 91, 4-(1-(2,3-dihydroxypropyl)-4-oxo-4,5-dihydro-1H-pyrrolo[3,2-c]pyridin-3-yl)benzenesulfonamide] | 19% | 92% | – | – | –
O=c1[nH]ccc2c1c(-c1ccc(N3CCOCC3)cc1)nn2-c1c(F)cccc1F [Example 179, 1-(2,6-difluorophenyl)-3-(4-(morpholin-4-yl)phenyl)-1,5-dihydro-4H-pyrazolo[4,3-c]pyridin-4-one] | 94% | 100% | – | – | –
N#CCOc1ccc(-c2nn(-c3c(F)cccc3F)c3c(Cl)c[nH]c(=O)c23)cc1 [Example 167, (4-(7-chloro-1-(2,6-difluorophenyl)-4-oxo-4,5-dihydro-1H-pyrazolo[4,3-c]pyridin-3-yl)phenoxy)acetonitrile] | 53% | 97% | – | – | –
N#Cc1c[nH]c(=O)c2c(-c3ccc(OCC(N)=O)cc3)cn(C3CCCC3)c12 [Example 120, 2-(4-(7-cyano-1-cyclopentyl-4-oxo-4,5-dihydro-1H-pyrrolo[3,2-c]pyridin-3-yl)phenoxy)acetamide] | 88% | 98% | – | – | –
NC(=O)c1cc(-c2nn(C3CCC(=O)CC3)c3cc[nH]c(=O)c23)cs1 [Example 170, 4-(4-oxo-1-(4-oxocyclohexyl)-4,5-dihydro-1H-pyrazolo[4,3-c]pyridin-3-yl)thiophene-2-carboxamide] | 99% | 98% | – | – | –
CNC(=O)c1ccc(-c2nn(-c3c(F)cccc3F)c3cc[nH]c(=O)c23)cc1 [Example 180, 4-(1-(2,6-difluorophenyl)-4-oxo-4,5-dihydro-1H-pyrazolo[4,3-c]pyridin-3-yl)-N-methylbenzamide] | 92% | 101% | – | – | –
N#CCc1cc(-c2nn(-c3c(F)cccc3F)c3c(Cl)c[nH]c(=O)c23)cs1 [Example 152, (4-(7-chloro-1-(2,6-difluorophenyl)-4-oxo-4,5-dihydro-1H-pyrazolo[4,3-c]pyridin-3-yl)-2-thienyl)acetonitrile] | 97% | 99% | – | – | –
N#Cc1c[nH]c(=O)c2c(-c3ccccn3)cn(C3CCCC3)c12 [Example 132, 1-cyclopentyl-4-oxo-3-(pyridin-2-yl)-4,5-dihydro-1H-pyrrolo[3,2-c]pyridine-7-carbonitrile] | 27% | 74% | – | – | –
N#CCc1cc(-c2cn(C3CCCC3)c3c(C#N)c[nH]c(=O)c23)cs1 [Example 93, 3-(5-(cyanomethyl)-3-thienyl)-1-cyclopentyl-4-oxo-4,5-dihydro-1H-pyrrolo[3,2-c]pyridine-7-carbonitrile] | 98% | 99% | – | – | –
O=C(c1cc(-c2nn(-c3c(F)cccc3F)c3c(Cl)c[nH]c(=O)c23)cs1)N1CCOCC1 [Example 192, 7-chloro-1-(2,6-difluorophenyl)-3-(5-(morpholin-4-ylcarbonyl)-3-thienyl)-1,5-dihydro-4H-pyrazolo[4,3-c]pyridin-4-one] | – | 99% | 94% | – | –
CCC(CC)n1nc(-c2csc(C(N)=O)c2)c2c(=O)[nH]ccc21 [Example 149, 4-(4-oxo-1-(pentan-3-yl)-4,5-dihydro-1H-pyrazolo[4,3-c]pyridin-3-yl)thiophene-2-carboxamide] | 100% | 99% | – | – | –
NS(=O)(=O)c1ccc(-c2nn(C3CCCOC3)c3cc[nH]c(=O)c23)cc1 (stereo not shown) [Example 87, 4-(4-oxo-1-(tetrahydro-2H-pyran-3-yl)-4,5-dihydro-1H-pyrazolo[4,3-c]pyridin-3-yl)benzenesulfonamide] | 99% | 96% | – | – | –

Results, then the compound that gave them:

inhibition at 1 µM (JAK1) | inhibition at 1 µM (Tyk2) | inhibition at 10 µM (JAK1; [1]) | inhibition at 10 µM (JAK1; test compound 10 μM) | inhibition at 10 µM (Tyk2; test compound 10 μM, read-out: Inhibitory rate (%) Tyk2 10 μM) | SMILES
92% | 99% | – | – | – | CN(C)NC(=O)c1ccc(-c2nn(-c3c(F)cccc3F)c3cc[nH]c(=O)c23)cc1 [Example 289, 4-(1-(2,6-difluorophenyl)-4-oxo-4,5-dihydro-1H-pyrazolo[4,3-c]pyridin-3-yl)-N′,N′-dimethylbenzhydrazide]
0% | 69% | – | – | – | NC(=O)c1cc(F)cc(-c2nn(-c3c(F)cccc3F)c3c(Cl)c[nH]c(=O)c23)c1 [Example 270, 3-(7-chloro-1-(2,6-difluorophenyl)-4-oxo-4,5-dihydro-1H-pyrazolo[4,3-c]pyridin-3-yl)-5-fluorobenzamide]
72% | 91% | – | – | – | Cn1cc(-c2nn(-c3c(F)cccc3F)c3cc[nH]c(=O)c23)ccc1=O [Example 238, 1-(2,6-difluorophenyl)-3-(1-methyl-6-oxo-1,6-dihydropyridin-3-yl)-1,5-dihydro-4H-pyrazolo[4,3-c]pyridin-4-one]
97% | 90% | – | – | – | CC[C@H](COC)n1nc(-c2csc(C(N)=O)c2)c2c(=O)[nH]ccc21 [Example 263, 4-(1-((2R)-1-methoxybutan-2-yl)-4-oxo-4,5-dihydro-1H-pyrazolo[4,3-c]pyridin-3-yl)thiophene-2-carboxamide]
90% | 98% | – | – | – | N#Cc1cccc(F)c1-n1nc(-c2ccc(N3CCOCC3)nc2)c2c(=O)[nH]ccc21 [Example 306, 3-fluoro-2-(3-(6-(morpholin-4-yl)pyridin-3-yl)-4-oxo-4,5-dihydro-1H-pyrazolo[4,3-c]pyridin-1-yl)benzonitrile]
– | – | – | 24% | 80% | CNC(=O)c1ccc(-c2nn(-c3c(F)cccc3F)c3cc[nH]c(=O)c23)c(Cl)c1 [Example 295, 3-chloro-4-(1-(2,6-difluorophenyl)-4-oxo-4,5-dihydro-1H-pyrazolo[4,3-c]pyridin-3-yl)-N-methylbenzamide]
35% | 92% | – | – | – | CNC(=O)c1ccc(-c2nn(-c3c(F)cccc3F)c3cc[nH]c(=O)c23)c(F)c1 [Example 294, 4-(1-(2,6-difluorophenyl)-4-oxo-4,5-dihydro-1H-pyrazolo[4,3-c]pyridin-3-yl)-3-fluoro-N-methylbenzamide]
89% | 97% | – | – | – | N#Cc1cc(F)c(-n2nc(-c3ccc(N4CCOCC4)cc3)c3c(=O)[nH]ccc32)c(F)c1 [Example 244, 3,5-difluoro-4-(3-(4-(morpholin-4-yl)phenyl)-4-oxo-4,5-dihydro-1H-pyrazolo[4,3-c]pyridin-1-yl)benzonitrile]
